The Ki is a dissociation constant, usually derived from enzyme kinetics or from competition with a known ligand.

The assay addresses T1, Alpha-2A adrenergic receptor (Sus scrofa, UniProt P18871).
T1 sequence (P18871 whole entry): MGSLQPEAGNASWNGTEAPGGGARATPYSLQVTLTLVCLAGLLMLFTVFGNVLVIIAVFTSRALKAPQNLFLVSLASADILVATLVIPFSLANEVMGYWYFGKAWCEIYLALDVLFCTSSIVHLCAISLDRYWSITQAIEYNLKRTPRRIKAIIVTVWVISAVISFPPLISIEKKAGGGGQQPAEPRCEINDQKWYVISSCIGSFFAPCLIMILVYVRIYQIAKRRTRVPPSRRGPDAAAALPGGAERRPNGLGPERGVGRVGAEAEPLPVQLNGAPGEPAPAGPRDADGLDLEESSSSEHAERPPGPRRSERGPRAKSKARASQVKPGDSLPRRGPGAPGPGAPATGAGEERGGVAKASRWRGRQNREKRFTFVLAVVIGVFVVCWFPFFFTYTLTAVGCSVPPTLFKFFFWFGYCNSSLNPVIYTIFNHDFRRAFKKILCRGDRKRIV
With `NC(N)=NN=Cc1c(Cl)cccc1Cl` [Guanabenz], the Ki turned out to be 57.5 nM.
With `CNCC(O)c1ccc(O)c(O)c1` (stereo unspecified) [EPINEPHRINE] the figure was 646 nM; with `Clc1cccc(Cl)c1N=C1NCCN1` [2-(2,6-dichloroanilino)-2-imidazoline], 85.1 nM; with `Clc1cc(I)cc(Cl)c1N=C1NCCN1` [Iodoclonidine-p], 51.3 nM.
As for `Nc1cc(Cl)c(N=C2NCCN2)c(Cl)c1` [p-AMINOCLONIDINE], the figure is 288 nM; as for `Cc1cc(C(C)(C)C)c(O)c(C)c1CC1=NCCN1` [SMR000059324], 35.5 nM.
For `Brc1c(NC2=NCCN2)ccc2nccnc12` [UK 14,304], affinity was put at a Ki of 479 nM.
With `Cc1cccc(C)c1N=C1NCCCS1` [(5,6-Dihydro-4H-[1,3]thiazin-2-yl)-(2,6-dimethyl-phenyl)-amine], the Ki worked out at 3160 nM.
As for `CCN1CCc2nc(N)oc2CC1` [NSC_169743], the figure is over 10000 nM; as for `CC(C)NCC(O)c1ccc(O)c(O)c1` (stereo not drawn) [Isoproterenol,(+)], over 10000 nM; as for `NCC(O)c1ccc(O)c(O)c1` (stereo not drawn) [Noradrenaline,(+)], 5620 nM.

The values are drawn from BindingDB's records for PubMed 10900230 (University of Michigan, 2000).
